This test concerns the target T1, GO (Homo sapiens, UniProt Q9UJM8).
T1 sequence (Q9UJM8 1-370): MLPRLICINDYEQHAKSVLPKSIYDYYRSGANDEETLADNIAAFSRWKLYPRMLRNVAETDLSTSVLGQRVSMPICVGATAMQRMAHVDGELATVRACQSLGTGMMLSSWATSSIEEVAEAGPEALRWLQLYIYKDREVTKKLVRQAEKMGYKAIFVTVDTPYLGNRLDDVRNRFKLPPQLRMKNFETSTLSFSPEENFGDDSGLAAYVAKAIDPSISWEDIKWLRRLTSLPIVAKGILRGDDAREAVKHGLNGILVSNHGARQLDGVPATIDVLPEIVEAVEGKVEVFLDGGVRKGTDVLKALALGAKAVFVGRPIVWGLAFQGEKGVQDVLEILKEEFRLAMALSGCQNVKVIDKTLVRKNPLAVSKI
Put plainly: GO Enzymatic Assay (Assay 1). The class given is biochemical. On the set-up: purchased Novus Biologicals NBP1-72412. On the procedure:
Assay 1: GO Enzymatic Assay
GO was incubated with its substrate, glycolate, in 50 mM potassium phosphate buffer, pH 7. […] The enzyme was optimized and the kinetics was determined.
Compound inhibition was determined by adding various concentrations of inhibitors in the GO enzyme assay. The IC50 value for each measured compound was generated from sigmoidal dose-response (variable slope) curves with GraphPad Prism software (GraphPad Software, Inc., San Diego, Calif.) using the percent inhibition of GO activity relative to DMSO control.

Setting [1] is: Table 4, class symbols without asterisk, GO Enzymatic Assay (Assay 1), read-out: Range.
[2] abbreviates: human GO, glycolate substrate, pH 7, percent inhibition relative to DMSO control, read-out: Range of IC50 values calculated from the enzymatic assays (Assay 1).

Like-named read-outs stand apart in the source and are kept apart here.

This passage reports IC50 results from patent US20230088214A1, “GLYCOLATE OXIDASE INHIBITORS FOR THE TREATMENT OF DISEASE” (BIOMARIN PHARMACEUTICAL INC., priority 2019, published 2023).

Turning to `O=C(O)c1[nH]nnc1S[C@H]1CC[C@H](c2cc(OC(F)(F)F)ccc2Cl)CC1` [Compound 411, 4-(((trans)-4-(2-chloro-5-(trifluoromethoxy)phenyl)cyclohexyl)thio)-1H-1,2,3-triazole-5-carboxylic acid], the IC50 under setting [1] is less than 100 nM.
As for `O=C(O)c1[nH]nnc1S[C@H]1C[C@H](c2ccc(N3CCCCC3)cc2)C1` [Compound 434, 4-(((trans)-3-(4-(piperidin-1-yl)phenyl)cyclobutyl)thio)-1H-1,2,3-triazole-5-carboxylic acid 2,2,2-trifluoroacetate], the IC50 under setting [1] is less than 100 nM.
Regarding `O=C(O)c1[nH]nnc1COC1CCN(c2cc(Cl)cc(Cl)c2)CC1` [Example 477, 4-(((1-(3,5-dichlorophenyl)piperidin-4-yl)oxy)methyl)-1H-1,2,3-triazole-5-carboxylic acid], the IC50 under setting [1] was less than 100 nM.
The same measure, in the same setting: for `O=C(O)c1[nH]nnc1O[C@H]1CC[C@@H](c2ccc(N3CCCCC3=O)cc2)CC1` [Compound 379, 4-(((cis)-4-(4-(2-oxopiperidin-1-yl)phenyl)cyclohexyl)oxy)-1H-1,2,3-triazole-5-carboxylic acid] the value was less than 100 nM; for `O=C(O)c1[nH]nnc1Sc1ccc(-c2ccc(Cl)cc2)c(OCC2CCCC2)c1` [Compound 398, 4-((4′-chloro-2-(cyclopentylmethoxy)-[1,1′-biphenyl]-4-yl)thio)-1H-1,2,3-triazole-5-carboxylic acid 2,2,2-trifluoroacetate], less than 100 nM.
Take `O=C(O)c1[nH]nnc1O[C@H]1CC[C@H](c2ccc(-n3cncn3)cc2)CC1` [Compound 405, 4-(((trans)-4-(4-(1H-1,2,4-triazol-1-yl)phenyl)cyclohexyl)oxy)-1H-1,2,3-triazole-5-carboxylic acid]: under setting [1], the IC50 was less than 100 nM.
Same read-out and setting: for `O=C(O)c1[nH]nnc1S[C@H]1CC[C@H](c2ccc(OC(F)(F)F)cc2)CC1` [Compound 422, 4-(((trans)-4-(4-(trifluoromethoxy)phenyl)cyclohexyl)thio)-1H-1,2,3-triazole-5-carboxylic acid] the value was less than 100 nM.
Consider `NC(=O)c1ccc(-c2ccc(Oc3nn[nH]c3C(=O)O)cc2)cc1` [Compound 397, 4-((4′-carbamoyl-[1,1′-biphenyl]-4-yl)oxy)-1H-1,2,3-triazole-5-carboxylic acid], for which the IC50 under setting [1] was less than 100 nM.
With `CS(=O)(=O)c1ccc([C@H]2CC[C@H](Oc3nn[nH]c3C(=O)O)CC2)cc1` [Compound 438, 4-(((trans)-4-(4-(methylsulfonyl)phenyl)cyclohexyl)oxy)-1H-1,2,3-triazole-5-carboxylic acid], the IC50 under setting [1] was less than 100 nM.
Same read-out and setting: the result for `O=C(O)c1[nH]nnc1O[C@H]1CC[C@H](c2ccc(N3CCCCC3)c(Cl)c2)CC1` [Compound 441, 4-(((trans)-4-(3-chloro-4-(piperidin-1-yl)phenyl)cyclohexyl)oxy)-1H-1,2,3-triazole-5-carboxylic acid 2,2,2-trifluoroacetate] reads less than 100 nM; that for `O=C(O)c1[nH]nnc1CS[C@H]1CC[C@@H](c2cc(Cl)cc(Cl)c2)CC1` [Compound 377, 4-((((cis)-4-(3,5-dichlorophenyl)cyclohexyl)thio)methyl)-1H-1,2,3-triazole-5-carboxylic acid], less than 100 nM; that for `O=C(O)c1[nH]nnc1O[C@H]1C[C@H](c2ccc(N3CCCCC3)cc2)C1` [Compound 426, 4-((trans)-3-(4-(piperidin-1-yl)phenyl)cyclobutoxy)-1H-1,2,3-triazole-5-carboxylic acid 2,2,2-trifluoroacetate], less than 100 nM.
Consider `O=C(O)c1[nH]nnc1O[C@H]1CC[C@H](c2ccc(N3CCCC3=O)cc2)CC1` [Compound 412, 4-(((trans)-4-(4-(2-oxopyrrolidin-1-yl)phenyl)cyclohexyl)oxy)-1H-1,2,3-triazole-5-carboxylic acid], for which, under setting [1], the IC50 was less than 100 nM.
Consider `O=C(O)c1[nH]nnc1O[C@H]1CC[C@H](c2cc(OC(F)(F)F)ccc2Cl)CC1` [Compound 395, 4-(((trans)-4-(2-chloro-5-(trifluoromethoxy)phenyl)cyclohexyl)oxy)-1H-1,2,3-triazole-5-carboxylic acid], for which the IC50 under setting [1] is less than 100 nM.
The same measure, in the same setting: for `O=C(O)c1[nH]nnc1Oc1ccc(Cl)c(OC2CCCC2)c1` [Compound 381, 4-(4-chloro-3-(cyclopentyloxy)phenoxy)-1H-1,2,3-triazole-5-carboxylic acid 2,2,2-trifluoroacetate] the value was less than 100 nM.
For the molecule `O=C(O)c1[nH]nnc1Oc1ccc(Cl)c(OC2CCCCC2)c1` [Compound 399, 4-(4-chloro-3-(cyclohexyloxy)phenoxy)-1H-1,2,3-triazole-5-carboxylic acid 2,2,2-trifluoroacetate], under setting [1], the IC50 is less than 100 nM.
Same read-out and setting: for `CS(=O)(=O)c1ccc([C@H]2CC[C@H](Sc3nn[nH]c3C(=O)O)CC2)cc1` [Compound 439, 4-(((trans)-4-(4-(methylsulfonyl)phenyl)cyclohexyl)thio)-1H-1,2,3-triazole-5-carboxylic acid 2,2,2-trifluoroacetate] the value was less than 100 nM; for `O=C(O)c1[nH]nnc1S[C@H]1CC[C@H](c2ccc3ncccc3c2)CC1` [Compound 410, 4-(((trans)-4-(quinolin-6-yl)cyclohexyl)thio)-1H-1,2,3-triazole-5-carboxylic acid 2,2,2-trifluoroacetate], less than 100 nM; for `O=C(O)c1[nH]nnc1O[C@H]1CC[C@H](c2ccc(-n3cccn3)cc2)CC1` [Compound 418, 4-(((trans)-4-(4-(1H-pyrazol-1-yl)phenyl)cyclohexyl)oxy)-1H-1,2,3-triazole-5-carboxylic acid], less than 100 nM.
In the case of `O=C(O)c1[nH]nnc1O[C@H]1CC[C@H](c2ccc(C(=O)N3CCOCC3)cc2)CC1` [Compound 416, 4-(((trans)-4-(4-(morpholine-4-carbonyl)phenyl)cyclohexyl)oxy)-1H-1,2,3-triazole-5-carboxylic acid 2,2,2-trifluoroacetate], under setting [1], the IC50 is less than 100 nM.
Regarding `O=C(O)c1[nH]nnc1Oc1ccc(Cl)c(OC2CC2)c1` [Compound 445, 4-(4-chloro-3-cyclopropoxyphenoxy)-1H-1,2,3-triazole-5-carboxylic acid], the IC50 under setting [1] is less than 100 nM.
For the molecule `O=C(O)c1[nH]nnc1O[C@H]1CC[C@@H](c2ccc(OC(F)(F)F)cc2)CC1` [Compound 272-2, 4-(((cis)-4-(4-(trifluoromethoxy)phenyl)cyclohexyl)oxy)-1H-1,2,3-triazole-5-carboxylic acid], the IC50 under setting [2] is less than 100 nM.
As to `O=C(O)c1[nH]nnc1Oc1ccc(C2CCN(C3CCCCC3)CC2)cc1` [Compound 388, 4-(4-(1-cyclohexylpiperidin-4-yl)phenoxy)-1H-1,2,3-triazole-5-carboxylic acid 2,2,2-trifluoroacetate], the IC50 under setting [1] was 1000 to 10000 nM.
Still for that read-out and setting: for `O=C(O)c1[nH]nnc1CSC1CCN(c2ccc(Cl)c(Cl)c2)CC1` [Compound 384, 4-(((1-(3,4-dichlorophenyl)piperidin-4-yl)thio)methyl)-1H-1,2,3-triazole-5-carboxylic acid 2,2,2-trifluoroacetate] the value was less than 100 nM; for `O=C(O)c1[nH]nnc1O[C@H]1CC[C@H](c2ccc(N3CCCCC3)cc2)CC1` [Compound 436, 4-(((trans)-4-(4-(piperidin-1-yl)phenyl)cyclohexyl)oxy)-1H-1,2,3-triazole-5-carboxylic acid 2,2,2-trifluoroacetate], less than 100 nM.
As for `O=C(O)c1[nH]nnc1O[C@H]1CC[C@H](c2ccc(F)cc2F)CC1` [Compound 424, 4-(((trans)-4-(2,4-difluorophenyl)cyclohexyl)oxy)-1H-1,2,3-triazole-5-carboxylic acid 2,2,2-trifluoroacetate], under setting [1], the IC50 was less than 100 nM.
Same read-out and setting: the result for `O=C(O)c1[nH]nnc1CSC1CCN(c2cc(Cl)ccc2Cl)CC1` [Compound 383, 4-(((1-(2,5-dichlorophenyl)piperidin-4-yl)thio)methyl)-1H-1,2,3-triazole-5-carboxylic acid 2,2,2-trifluoroacetate] reads less than 100 nM.
In the case of `O=C(O)c1[nH]nnc1O[C@H]1CC[C@H](c2ccc(OC(F)(F)F)cc2)CC1` [Compound 272-1, 4-(((trans)-4-(4-(trifluoromethoxy)phenyl)cyclohexyl)oxy)-1H-1,2,3-triazole-5-carboxylic acid], the IC50 under setting [2] is less than 100 nM.
Regarding `O=C(O)c1[nH]nnc1O[C@H]1CC[C@@H](c2cc(OC(F)(F)F)ccc2Cl)CC1` [Compound 396, 4-(((cis)-4-(2-chloro-5-(trifluoromethoxy)phenyl)cyclohexyl)oxy)-1H-1,2,3-triazole-5-carboxylic acid], the IC50 under setting [1] is less than 100 nM.
On the same count and under the same terms, the result for `N#Cc1ccc(COc2cc(Oc3nn[nH]c3C(=O)O)ccc2Cl)cc1` [Compound 423, 4-(4-chloro-3-((4-cyanobenzyl)oxy)phenoxy)-1H-1,2,3-triazole-5-carboxylic acid] reads less than 100 nM; that for `O=C(O)c1[nH]nnc1Sc1ccc(-c2ccc(N3CCCCC3)c(Cl)c2)cc1` [Compound 376, 4-((3′-chloro-4′-(piperidin-1-yl)-[1,1′-biphenyl]-4-yl)thio)-1H-1,2,3-triazole-5-carboxylic acid 2,2,2-trifluoroacetate], less than 100 nM.
